# In patent publication US10406150B2, “Method for treatment of primary hormone resistant endometrial and breast cancers” (Lipoxen Technologies Limited, priority 2014, dated 2019):
# System: secondary PR negative Ishikawa cells
# Assay: Model of secondary PR-negative endometrial cancer (progestin-resistant Ishikawa xenograft)
# Format: in vivo, mice
# Details: day 7; MPA 250 mg/kg/day i.p. 5 days per week, SC 0.3 mg/kg i.m. each alternate day; mean ± SEM
# Experimental: When the surviving cells had grown to a high density but were still less than confluent, cells were subcloned using 0.02% EDTA and 0.25% trypsin prepared in Hanks' balanced salt solution. MPA-containing medium was replaced every 2-3 days. Cells proliferating in 10 μM MPA with the same doubling time as the initial Ishikawa cells proliferating in the medium without MPA, were considered as secondary progestin-resistant Ishikawa cells.
# 2×10^6 secondary PR negative Ishikawa cells were inoculated into the flanks of MF-1 female nude mice in 100 μl Matrigel.
# 1) Vehicle control group: vehicle only, −0.9% sodium chloride for injection i.m each alternate day and i.p. for 5 days per week.
# 2) MPA only control group: medroxyprogesterone acetate (MPA) (250 mg/kg/day) i.p. for 5 days per week.
# Tumors were measured with vernier calipers weekly. Tumor volumes (mm^3) were calculated using the modified ellipsoid formula: (length (mm)×width (mm)^2)/2. The ratio (percentage) of “Tumor volume at day n” to “tumor volume at day “0” was calculated for each animal. At the end of the experiments (day 35) animals were euthanized.
compound,measurement,value
"CC(=O)O[C@]1(C(C)=O)CC[C@H]2[C@@H]3C[C@H](C)C4=CC(=O)CC[C@]4(C)[C@H]3CC[C@@]21C [MPA, medroxyprogesterone acetate]",Tumor volume at day n/tumor volume at day “0”,170 ± 19%
